Source: US20020106342A1, “Methods for treating atopic disorders” (priority 2000, published 2002)

Tested on: skin fungal conditions
Experiment: Patients with skin fungal conditions treated with griseovulvin and an appropriate antibiotic, emollients ceased (Example 6)
Assay type: in vivo, human
Excerpt: Most patients received an antihistamine for the first ten days to control itch. The patients ceased the use of lotions and other emollients, as well as the use of local and systemic corticosteroids.

Structure (SMILES): COC1=CC(=O)C[C@@H](C)[C@]12Oc1c(Cl)c(OC)cc(OC)c1C2=O [griseovulvin]
- Appearance of "dry skin" (Patient A, after 35 days of treatment): cleared up considerably
- Fungus on skin (Patient B, one week later): improved dramatically
- Fungus on skin (Patient C, after treatment): significantly improved
- Fungus growth on back of neck (Patient D, after seven weeks): significantly diminished
- Fungal condition of skin (Patient F, after seven weeks of treatment): improving and peeling off
- Fungal infection tinea barbae (Patient G, after seven weeks): significantly cleared
- Skin with hair follicles infected by fungus (Patient H, after nine weeks of treatment): dramatically improved
